Measurements as given in patent publication US9493836B2, “Method for diagnosing hematological disorders” (UNIVERSITE FRANCOIS RABELAIS DE TOURS, priority 2010, dated 2016).
Entries after “also recorded” stand apart in the source; their conditions may differ.

What was measured:
AML sample = experiment: In vitro treatment of an AML sample with a demethylating agent; expression level of genes SEQ ID NO: 1-24 by qRT-PCR (oxydogram); assay type: cell-based, human; conditions: AML sample of one patient treated in vitro, compared with same untreated AML sample (FIG. 8)
Excerpt: Three micrograms of total RNA from each sample were reverse transcribed using the SuperScript® VILO™ cDNA Synthesis kit (Invitrogen) according to the protocol of the supplier. The relative quantification of gene expression was done by real-time PCR on the LightCycler® 480 microwell plate-based cycler platform (Roche Applied Science) using Universal ProbeLibrary assays designed with the ProbeFinder software (Roche Applied Science, www.roche-applied-science.com/sis/rtper/upl/ezhome.html). Primers were purchased from Invitrogen and Universal ProbeLibrary probes from Roche Applied Science. The nucleotide sequences of the primers and probes of each target are shown in Table A. All targets were concomitantly analyzed. qRT-PCR reactions were carried out in a total volume of 10 μL on 20 ng of cDNA using LightCycler® 480 Probes Master (Roche Applied Science). The LightCycler® 480 was programmed to an initial denaturation (95° C., 10 min) following by 45 cycles of 10 sec at 95° C., 30 sec at 60° C., 1 sec at 72° C. and a final cooling step at 40° C. for 10 sec. All reactions were run in triplicate, and average values were used for quantification. Results were analyzed by the relative quantification method (ΔΔCT=ΔCTpatient−ΔCTreference) using the Cycle threshold (CT) values determined with the LightCycler® 480 software (release 1.5.0) from Roche Applied Science. […]

AML and high grade MDS = conditions: background statement; cited from earlier work

SMILES | modulation of the expression level (ratio) of the genes SEQ ID NO: 1-24 (AML sample) | share of AML and high grade MDS sensitive to the agents' effects (AML and high grade MDS)
Nc1ncn([C@@H]2O[C@H](CO)[C@@H](O)[C@H]2O)c(=O)n1 [azacytidine, 5-azacytidine] | can modulate the expression ratio of the genes SEQ ID NO: 1-24; also recorded: modify the expression level of the genes | about 30%
Nc1ncn([C@H]2C[C@H](O)[C@@H](CO)O2)c(=O)n1 [decitabine, 5-azadeoxycytidine] |  | about 30%
